Data from PubChem BioAssay (NCI).
“And” between values parts separate entries of the source, which are not always exact repeats. Equal values may be shown once.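 48-hour exposure; five concentrations; linearly interpolated endpoints. GI50 is the concentration that inhibits growth by half. TGI marks complete inhibition of growth.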

Test system: MDA-MB-468 breast
Test: growth of human tumour cells (NCI), 48 h

| SMILES | GI50 | TGI |
| --- | --- | --- |
| CC(C)C[C@H](NC(=O)/C=C/Cn1ccc2ccccc2c1=O)B(O)O | 0.681 µM | 4.71 µM |
| CCCCCCCCCCCCCCCCCCOc1ccccc1CC(=O)OCC[N+]1(C)CCCC1 | 1.7 µM | 4.51 µM |
| CCc1nc(C(N)=O)c(Nc2ccc(N3CCC(N4CCN(C)CC4)CC3)c(OC)c2)nc1NC1CCOCC1 | 12.2 µM and 14 µM | 27.7 µM and > 2.37 µM and 31.8 µM |
| CC1=C[C@H]2c3c(c(O)c(O)c4oc(-c5ccccc5)cc(=O)c34)[C@H](c3cc(O)c(O)c4oc(-c5ccccc5)cc(=O)c34)[C@H]2C(C)(C)C1 | 1.38 µM | 4.76 µM |
| Nc1ccc(-c2nc3ccc(Cc4ccc5nc(-c6ccc(N)cc6)[nH]c5c4)cc3[nH]2)cc1 | 1.47 µM | 2.9 µM |
| COc1ccc(/C=N/NC(=O)c2[nH]c3ccc(Br)cc3c2-c2ccccc2)o1 | 0.0588 µM | 3.36 µM |
| Cc1ncc(CCCN(C)C)cc1Nc1ncc2c(n1)-c1ccc(C(F)(F)F)cc1NC(=S)C2 | < 0.0212 µM | 1.58 µM |
| O=c1cc(NC2CCN(CCCc3ccccc3)CC2)c2cc(Cl)ccc2o1 | 5.82 µM | 21.8 µM |
| CCOc1cc(C(C)(C)C)ccc1C1=N[C@@](C)(c2ccc(Cl)cc2)[C@@](C)(c2ccc(Cl)cc2)N1C(=O)N1CCN(CCCS(C)(=O)=O)CC1 | 2.53 µM | 7.92 µM |
| COc1cc(C(=O)c2cc(C)c3[nH]c4ccc(C)cc4c3c2C)cc(OC)c1OC | < 0.01 µM | 3.68 µM |
| COc1ccc(/C=C/C(=O)C(CC2CCC2)C(=O)/C=C/c2ccc(OC)c(OC)c2)cc1OC | 1.59 µM | 3.69 µM |
| Cn1c(=O)c(Cc2ccccc2F)cc2cnc(NC3CCOCC3)nc21 | > 25 µM | > 25 µM |
| CC1(C)[C@@H](OC(N)=O)[C@H]2O[C@H]2[C@]2(C=O)[C@H]3CC[C@]4(C)[C@@H](c5ccc(=O)oc5)[C@@H](Cl)C[C@]4(O)C3=CC[C@@H]12 | 0.0062 µM | 0.0178 µM |
| Cc1ccc2[nH]c(O)c(N=Nc3ccc(S(N)(=O)=O)cc3)c2c1 | 6.67 µM | > 25 µM |
| Cc1ccc(-c2nc3ccc(Cl)cc3c(=O)n2N2C(=O)CSC2c2ccccc2Cl)cc1 (configuration not stated) | 57.6 µM | > 100 µM |
| COc1ccc(C(=O)COc2ccc(/C=C3\COc4ccc(OC)cc4C3=O)cc2)cc1 | 18 µM | 88.2 µM |
| COC(=O)[C@H]1[C@@H](O)[C@@]2(O)c3c(OC)cc(OC)cc3O[C@@]2(c2ccc(OC)cc2)[C@@H]1c1ccccc1 | 0.00783 µM | 0.116 µM |
| CCOC(=O)c1sc(NCC(=O)Nc2cccc([N+](=O)[O-])c2)c(C(=O)OCC)c1C | 0.67 µM | 2.23 µM |
| C#CCOc1cccc(-c2nc(N)nc(Nc3ccccc3SSc3ccccc3Nc3nc(N)nc(-c4cccc(OCC#C)c4)n3)n2)c1 | > 33.3 µM | > 33.3 µM |
| Nc1ccc2cc3ccc(N)cc3nc2c1 | 0.531 µM | 2.22 µM |
| C[C@H](O)C(=O)N1CCC(CCn2c(Sc3cc4c(cc3Br)OCO4)nc3c(N)ncnc32)CC1 | 0.482 µM | 2.92 µM |
